The source of these data is US9867836B2, “Lavage and/or infusion using CSA compounds for increasing fertility in a mammal” (priority 2014, dated 2018).

The subject of one experiment is Escherichia coli. The experiment is described as follows: Sensitivity panel on organism isolated from mare endometrium. The experiment is classed as cell-based. The settings on record: isolate from endometrium of 16 year old Quarter Horse mare. From the text:
(§1) The microscopic findings from the lab were described as mild to moderate diffuse acute superficial […], Grade IIA endometrium. The lab also isolated Escherichia coli and Alpha-hemolytic streptococci. The sensitivity panel yielded the results in Table 1.

Experiment [1] relates to Alpha hemolytic streptococci. The description is as above. The experiment is classed as cell-based. To be noted: isolate from endometrium of 16 year old Quarter Horse mare.
Text: as §1

With `NCC[C@H](O)C(=O)N[C@@H]1C[C@H](N)[C@@H](O[C@H]2O[C@H](CN)[C@@H](O)[C@H](O)[C@H]2O)[C@H](O)[C@H]1O[C@H]1O[C@H](CO)[C@@H](O)[C@H](N)[C@H]1O` [Amikacin], in the experiment on Escherichia coli, the “Sensitivity Panel, Escherichia coli Organism Isolated” value was “Sensitive”. For the same molecule, in experiment [1], the “Sensitivity Panel, Alpha hemolytic streptococci organism isolated” value was “Resistant”.

On to `CC1(C)S[C@@H]2[C@H](NC(=O)[C@H](N)c3ccccc3)C(=O)N2[C@H]1C(=O)O` [Ampicillin], for which the “Sensitivity Panel, Escherichia coli Organism Isolated” value in the experiment with Escherichia coli is recorded as “Intermediate”. For the same molecule, the “Sensitivity Panel, Alpha hemolytic streptococci organism isolated” value in experiment [1] was “Sensitive”.

Regarding `Cc1nnc(SCC2=C(C(=O)O)N3C(=O)[C@@H](NC(=O)Cn4cnnn4)[C@H]3SC2)s1` [Cefazolin], the “Sensitivity Panel, Escherichia coli Organism Isolated” value in the experiment on Escherichia coli was “Sensitive”. Moreover, the “Sensitivity Panel, Alpha hemolytic streptococci organism isolated” value in experiment [1] is given as “Sensitive”. For the molecule `CO/N=C(\C(=O)N[C@@H]1C(=O)N2C(C(=O)O)=C(CSC(=O)c3ccco3)CS[C@H]12)c1csc(N)n1` [Ceftiofur], the “Sensitivity Panel, Escherichia coli Organism Isolated” value with Escherichia coli was “Sensitive”. The “Sensitivity Panel, Alpha hemolytic streptococci organism isolated” value in experiment [1] is “Sensitive”.

Take `CCN1CCN(c2cc3c(cc2F)c(=O)c(C(=O)O)cn3C2CC2)CC1` [Enrofloxacin]: the “Sensitivity Panel, Escherichia coli Organism Isolated” value in the experiment on Escherichia coli was “Sensitive”. Moreover, the “Sensitivity Panel, Alpha hemolytic streptococci organism isolated” value in experiment [1] is on record as “Sensitive”. Take `CC[C@H]1OC(=O)[C@H](C)[C@@H](O[C@H]2C[C@@](C)(OC)[C@@H](O)[C@H](C)O2)[C@H](C)[C@@H](O[C@@H]2O[C@H](C)C[C@H](N(C)C)[C@H]2O)[C@](C)(O)C[C@@H](C)C(=O)[C@H](C)[C@@H](O)[C@]1(C)O` [Erythromycin]: the “Sensitivity Panel, Alpha hemolytic streptococci organism isolated” value in experiment [1] is recorded as “Sensitive”. For the molecule `CS(=O)(=O)c1ccc([C@@H](O)[C@@H](CF)NC(=O)C(Cl)Cl)cc1` [Florfenicol], the “Sensitivity Panel, Escherichia coli Organism Isolated” value in the experiment on Escherichia coli was “Sensitive”. For the molecule `CO[C@H]1/C=C/O[C@@]2(C)Oc3c(C)c(O)c4c(O)c(c(/C=N/N5CCN(C)CC5)c(O)c4c3C2=O)NC(=O)/C(C)=C\C=C\[C@H](C)[C@H](O)[C@@H](C)[C@@H](O)[C@@H](C)[C@H](OC(C)=O)[C@@H]1C` [Rifampin], in experiment [1], the “Sensitivity Panel, Alpha hemolytic streptococci organism isolated” value is given as “Sensitive”. For the molecule `CC1(C)S[C@@H]2[C@H](NC(=O)[C@H](C(=O)O)c3ccsc3)C(=O)N2[C@H]1C(=O)O` [Ticarcillin], in the experiment with Escherichia coli, the “Sensitivity Panel, Escherichia coli Organism Isolated” value is given as “Sensitive”. Moreover, in experiment [1], the “Sensitivity Panel, Alpha hemolytic streptococci organism isolated” value is “Sensitive”. With Gentamicin, the “Sensitivity Panel, Escherichia coli Organism Isolated” value with Escherichia coli is “Sensitive”. For the same molecule, in experiment [1], the “Sensitivity Panel, Alpha hemolytic streptococci organism isolated” value is given as “Resistant”. Taken in the same sequence, the figures for TMP/Sulfa were “Resistant” and “Sensitive”. On to Trimmicosin, for which the “Sensitivity Panel, Escherichia coli Organism Isolated” value in the experiment with Escherichia coli is given as “Intermediate”.
